Consider 17 substances from US11066433B2, “Pentaaza macrocyclic ring complexes possessing oral bioavailability” (Galera Labs, LLC, priority 2015, dated 2021).

This data set is described as follows: Oral bioavailability by intraduodenal (id) dosing of minipigs, oil formulations, versus iv parent. Conditions: for Mini-Pig BioA: id 10 mg/kg, 10% by weight formulation, vs iv 1 mg/kg parent, AUC0-24 h. It counts as in vivo, Gottingen minipig. The protocol: Compounds were screened for oral bioavailability by injecting the formulated prodrugs directly into the duodenum (intraduodenal or id administration) of the minipig test subjects, thus bypassing the acidic environment of the stomach and thereby eliminating potentially misleading oral bioavailability results that could arise from alteration of the test article drug in the acid environment of the stomach.
The studies were conducted at Xenometrics LLC (Stillwell, Kans.) and the id bioavailability was determined using various axial ligand derivative complexes of GC4419, GC4444, GC4403 and GC4401.
Male Gottingen minipigs (4-5 mo old, 9-12 kg weight) were purchased from Marshall BioResources and housed at Xenometrics. […] The distal end was exteriorized with a reusable accessible hub (see surgical details below). During a recovery period of at least 2 weeks the minipigs were handled daily to acclimate them to the test procedures, i.e., id dosing and blood collections. For each experiment, each minipig received a test article drug dissolved or suspended in an excipient vehicle. […] All dosing experiments were conducted in fasted animals. Food was withdrawn from the minipigs 16 hours before dosing. The minipigs had ad libitum access to water. Dosed minipigs were allowed access to food 6 hour after dosing. The test article was administered at a dose of 10 mg/kg parent drug in 0.1 mL/kg vehicle (e.g., 1.5 mL in 15 kg minipig) as a bolus injection (˜1 minute) via the id cannula. The actual amount of total test article drug administered varied with the formula weight of the prodrug. An equal volume of excipient vehicle was used to flush the cannula after the test article was administered. Approximately 6 hours later, corn oil was used to flush the cannula. After approximately 24 hours post-dose, the catheter was flushed with sterile saline solution and capped. At the following time-points 0.25, 0.5, 1, 2, 4, 8, 24 and 48 hour post-injection, 2 mL blood samples were collected by cranial vena cava puncture (4 mL Sodium heparin Vacutainer, 20 g 1.5″ needle) after the skin surface was wiped with ethanol. The minipig was placed in a sling in a recumbent position without anesthesia for the collection of blood samples. The minipigs were never used more than once per 7 days for experimentation. The blood samples were kept on ice until processed for plasma. Blood samples were centrifuged at 1200×g for ten minutes at 4° C. and plasma samples were transferred to 96 well plate tubes, capped and stored at −20° C. until shipment on dry ice to the analytical laboratory used for measuring the concentration of drug in the plasma. The concentration of the parent manganese pentaaza macrocylic ring complex (independent of the composition of the axial ligands) was measured in plasma using a validated HPLC/MS/MS method that is linear between 50 ng/mL and 20,000 ng/mL.
Maisine 35-1 is chemically defined to be the monoglyceride glyceryl monolinoleate (NF) and was supplied by Gattefosse, SAINT-PRIEST Cedex, France. Labrasol (NF) is chemically defined to be caprylocaproyl polyoxyl-8 glycerides NF and was supplied by Gattefosse, SAINT-PRIEST Cedex, France. Labrafil M 1944 CS is chemically defined to be oleoyl polyoxyl-6 glycerides (NF), and is available from Gattefosse, SAINT-PRIEST Cedex, France. The dosing solutions were all prepared using a four place analytical balance by weighing all components of each formulation so that 10% by weight of each formulation contained the test article drug substance and 90% by weight of the oil used for that formulation.
The bioanalytical method which is used to quantitate the parent Mn(II) macrocyclic ring ligand structure in plasma utilizes HPLC with MS/MS detection and monitors the presence of the monocationic [monoformatoMn(pentaazamacrocycle)]+ complex. […]

Regarding “Manganese(II)bis-Benzoato[(4aS,13aS,17aS,21aS)-1,2,3,4,4a,5,6,12,13,13a,14,15,16,17,17a,18,19,20,21,21a-Eicosahydro-11,7-nitrilo-7H-dibenzo[b,h][1,4,7,10] tetraazacycloheptadecine-κN5, κN13, κN18, κN21, κN22]- [GC4712]”, the “Mini-Pig BioA” value amounted to 24% (base oil Capmul MCM), 18% (base oil Maisine 35-1) and 29% (base oil Peceol).
As for “Manganese(II)bis-L-Lactato[(4aS,13aS,17aS,21aS)-1,2,3,4,4a,5,6,12,13,13a,14,15,16,17,17a,18,19,20,21,21a-Eicosahydro-11,7-nitrilo-7H-dibenzo[b,h][1,4,7,10] tetraazacycloheptadecine-κN5, κN13, κN18, κN21, κN22]- [GC4714]”, the “Mini-Pig BioA” value (base oil Capmul MCM) is on record as 36%.
Same read-out and setting: the figure for “Manganese(II)bis-L-phenylalaninato[(4aS,13aS,17aS,21 aS)-1,2,3,4,4a,5,6,12,13,13a,14, 15,16,17,17a,18,19,20,21,21a-Eicosahydro-11,7-nitrilo-7H-dibenzo[b, h][1,4,7,10]tetraazacyclo-heptadecine-κN5, κN13, κN18, κN21, κN22]- [GC4704]” is 10%.
With “Manganese(II)bis-L-phenylglycinato[(4aS,13aS,17aS,21 aS)-1,2,3,4,4a,5,6,12,13,13a, 14,15,16,17,17a,18,19,20,21,21a-Eicosahydro-11,7-nitrilo-7H-dibenzo[b,h][1,4,7,10]tetraazacyclo-heptadecine-κN5, κN13, κN18, κN21, κN22]- [GC4702]”, the “Mini-Pig BioA” value reads like this: (base oil Capmul MCM) 43%; (base oil Labrafil M2125 CS) 25%; (base oil Miglyol 812 N) 42%; (base oil Peceol) 29%. In addition, the “oral bioavailability, comparison in words” value (id dosing of minipigs, various oils) was “much better absorbed”.
In the case of “Manganese(II)bis-L-valinato[(4aS,13aS,17aS,21aS)-1,2,3,4,4a,5,6,12,13,13a,14,15,16,17,17a,18,19,20,21,21a-Eicosahydro-11,7-nitrilo-7H-dibenzo[b,h][1,4,7,10] tetraazacyclo-heptadecine-κN5, κN13, κN18, κN21, κN22]- [GC4746]”, the “Mini-Pig BioA” value (base oil Capmul MCM) was determined as 13%.
As to “Manganese(II)bis-acetato[(4aS,13aS,17aS,21aS)-1,2,3,4,4a,5,6,12,13,13a,14,15,16,17,17a,18,19,20,21,21a-Eicosahydro-11,7-nitrilo-7H-dibenzo[b,h][1,4,7,10] tetraazacycloheptadecine-κN5, κN13, κN18, κN21, κN22]- [GC4701]”, the “Mini-Pig BioA” value runs as follows: (base oil Capmul MCM) 15%; (base oil Labrafil M2125 CS) 16%; (base oil Maisine 35-1) 8%; (base oil Peceol) 11%.
For “Manganese(II)bis-cyclohexanebutyrato[(4aS,13aS,17aS,21 aS)-1,2,3,4,4a,5,6,12,13,13a, 14,15,16,17,17a,18,19,20,21,21a-Eicosahydro-11,7-nitrilo-7H-dibenzo[b,h][1,4,7,10]tetraazacyclo-heptadecine-κN5, κN13, κN18, κN21, κN22]- [GC4707]”, where the note is “base oil Capmul MCM”, the “Mini-Pig BioA” value amounted to 9%.
Turning to “Manganese(II)bis-dodecanoato[(4aS,13aS,17aS,21aS)-1,2,3,4,4a,5,6,12,13,13a,14,15,16,17,17a,18,19,20,21,21a-Eicosahydro-11,7-nitrilo-7H-dibenzo[b,h][1,4,7,10] tetraazacycloheptadecine-κN5, κN13, κN18, κN21, κN22]- [GC4708]”, under “base oil Capmul MCM”, the “Mini-Pig BioA” value is reported as 12%.
On to “Manganese(II)bis-n-Butyrato[(4aS,13aS,17aS,21aS)-1,2,3,4,4a,5,6,12,13,13a,14,15,16,17,17a,18,19,20,21,21a-Eicosahydro-11,7-nitrilo-7H-dibenzo[b,h][1,4,7,10] tetraazacycloheptadecine-κN5, κN13, κN18, κN21, κN22]- [GC4713]”, for which the “Mini-Pig BioA” value is 21% (base oil Labrafil M2125 CS) and 18% (base oil Peceol).
For “Manganese(II)bis-octanoato[(4aS,13aS,17aS,21aS)-1,2,3,4,4a,5,6,12,13,13a,14,15,16,17,17a,18,19,20,21,21a-Eicosahydro-11,7-nitrilo-7H-dibenzo[b,h][1,4,7,10] tetraazacycloheptadecine-κN5, κN13, κN18, κN21, κN22]- [GC4710]”, the “Mini-Pig BioA” value runs as follows: (base oil Capmul MCM) 13%; (base oil Labrafil M2125 CS) 21%; (base oil Maisine 35-1) 8%.
With “Manganese(II)bis-phenylacetato[(4aS,13aS,17aS,21aS)-1,2,3,4,4a,5,6,12,13,13a,14,15,16,17,17a,18,19,20,21,21a-Eicosahydro-11,7-nitrilo-7H-dibenzo[b,h][1,4,7,10] tetraazacyclo-heptadecine-κN5, κN13, κN18, κN21, κN22]- [GC4718]”, the “Mini-Pig BioA” value by setting is: (base oil Capmul MCM) 32%; (base oil Maisine 35-1) 28%.
“Manganese(II)bis-phenylglyoxaloto[(4aS,13aS,17aS,21aS)-1,2,3,4,4a,5,6,12,13,13a,14,15,16,17,17a,18,19,20,21,21a-Eicosahydro-11,7-nitrilo-7H-dibenzo[b,h][1,4,7,10]tetraazacyclohepta-decine-κN5, κN13, κN18, κN21, κN22]- [GC4719]”: the “Mini-Pig BioA” value reads like this: (base oil Capmul MCM) 25%; (base oil Maisine 35-1) 31%; (base oil Peceol) 28%.
With “Manganese(II)bis-pivaloato[(4aS,13aS,17aS,21aS)-1,2,3,4,4a,5,6,12,13,13a,14,15,16,17,17a,18,19,20,21,21a-Eicosahydro-11,7-nitrilo-7H-dibenzo[b,h][1,4,7,10] tetraazacycloheptadecine-κN5, κN13, κN18, κN21, κN22]- [GC4709]”, the “Mini-Pig BioA” value (base oil Capmul MCM) is on record as 17% and the “Mini-Pig BioA” value (base oil Labrafil M2125 CS) was 22%.
Take “Manganese(II)bis-propionato[6R-Methyl(4aR,13aR,17aR,21 aR)-1,2,3,4,4a,5,6,12,13,13a,14,15,16,17,17a,18,19,20,21,21a-Eicosahydro-11,7-nitrilo-7H-dibenzo[b,h][1,4,7,10] tetraazacycloheptadecine-κN5, κN13, κN18, κN21, κN22]- [GC4747]”: the “Mini-Pig BioA” value (base oil Labrafil M2125 CS) is listed as 20%.
Same read-out and setting: the value for “Manganese(II)bis-propionato[(4aR,13aR,17aR,21 aR)-1,2,3,4,4a,5,6,12,13,13a,14,15,16,17,17a,18,19,20,21,21a-Eicosahydro-11,7-nitrilo-7H-dibenzo[b,h][1,4,7,10] tetraazacycloheptadecine-κN5, κN13, κN18, κN21, κN22]- [GC4748]” was 22%.
As for “Manganese(II)bis-propionato[(4aS,13aS,17aS,21aS)-1,2,3,4,4a,5,6,12,13,13a,14,15,16,17,17a,18,19,20,21,21a-Eicosahydro-11,7-nitrilo-7H-dibenzo[b,h][1,4,7,10] tetraaza-cycloheptadecine-κN5, κN13, κN18, κN21, κN22]- [GC4711]”, the “Mini-Pig BioA” value is recorded as 27% (base oil Capmul MCM); 23% (base oil Labrafil M1944 CS); 44% (base oil Labrafil M2125 CS); 29% (base oil Maisine 35-1); 29% (base oil Peceol).
Consider “Manganese(II)bis-rac-Mandelato[(4aS,13aS,17aS,21aS)-1,2,3,4,4a,5,6,12,13,13a,14,15,16,17,17a,18,19,20,21,21a-Eicosahydro-11,7-nitrilo-7H-dibenzo[b,h][1,4,7,10] tetraazacycloheptadecine-κN5, κN13, κN18, κN21, κN22]- [GC4706]”, for which the “Mini-Pig BioA” value (base oil Capmul MCM) is given as 28%.
